In patent publication US9597359B2, “Production of dentin, cementum and enamel by cells” (The Trustees of Columbia University in the City of New York, priority 2010, dated 2017):

Experiments:
Human PDL cells [1] = experiment: von Kossa staining of human PDL cells treated with amelogenin, BIO or Wnt3A; type: cell-based; conditions: 2 weeks; amelogenin 5 μg/ml, BIO 1 μg/ml, Wnt3A 50 ng/ml
Procedure: The human PDL cells were treated with amelogenin, BIO, or Wnt3A as indicated for 2 weeks.

beta catenin [2] = experiment: beta catenin translocation by immunofluorescence staining in PDL cells; type: cell-based, human
Procedure: The PDL cells were treated with recombinant amelogenin overnight. The translocation of beta catenin was determined by immunofluorescence staining (see e.g., FIG. 7A-F). Briefly, the cells were fixed with formalin for 5 min and treated with PBS with 0.1% triton for 5 min. The cells were then incubated with anti-beta catenin antibody overnight, after washing with PBS with 0.5% Tween-20, then incubated with secondary antibody labeled with fluorescence dye. […] Meanwhile, the PDL cells treated with amelogenin were lysed with PBS lysis buffer containing 1% NP-40 and protease inhibitor, phosphotase inhibitor cocktails. The non-phosphorylated beta catenin levels were determined by western blotting using anti-active beta catenin antibody (anti-ABC, millipore) (see e.g., FIG. 7G).
PDL cells were treated with amelogenin for 16 hours. The active beta catenin level were determined by western blotting (see e.g., FIG. 18A). […] Wnt signaling reporter TOPFLASH was transfected into PDL cells and then the cells were treated with amelogenin. The luciferase activity was measured 48 hours after treatment (see e.g., FIG. 18C). The primary osteoblasts were isolated from Wnt signaling reporter mice, TOPGAL. 48 hours after treatment, the LacZ activity was measured (see e.g., FIG. 18D). Fibrin gel containing 50 μg/ml was implanted subcutaneously into the TOPGAL mice. 1 week post-implantation, the gel was harvested. […]

beta catenin [3] = experiment: beta catenin translocation by immunofluorescence staining in dental pulp cells; type: cell-based, human; conditions: dental pulp cells treated with recombinant amelogenin overnight
Procedure: (§1) The dental pulp cells were treated with recombinant amelogenin overnight. The translocation of beta catenin was determined by immunofluorescence staining (see e.g., FIG. 8A-F). Briefly, the cells were fixed with formalin for 5 min and treated with PBS with 0.1% triton for 5 min. The cells were then incubated with anti-beta catenin antibody overnight, after washing with PBS with 0.5% Tween-20, then incubated with secondary antibody labeled with fluorescence dye. […] The PDL cells treated with amelogenin were lysed with PBS lysis buffer containing 1% NP-40 and protease inhibitor, phosphatase inhibitor cocktails. The non-phosphorylated beta-catenin levels were determined by western blotting using anti-active beta catenin antibody (anti-ABC, millipore) (see e.g., FIG. 8G).

[4] = tested on: non-phosphorylated beta-catenin; experiment: non-phosphorylated beta-catenin western blotting, dental pulp cells; type: cell-based, human; conditions: anti-active beta catenin antibody
Procedure: as §1

active beta catenin = active beta catenin western blotting, PDL cells; type: cell-based, human; conditions: PDL cells treated for 16 hours
Procedure: (§2) PDL cells were treated with amelogenin for 16 hours. The active beta catenin level were determined by western blotting (see e.g., FIG. 18A). […] Wnt signaling reporter TOPFLASH was transfected into PDL cells and then the cells were treated with amelogenin. The luciferase activity was measured 48 hours after treatment (see e.g., FIG. 18C). The primary osteoblasts were isolated from Wnt signaling reporter mice, TOPGAL. 48 hours after treatment, the LacZ activity was measured (see e.g., FIG. 18D). Fibrin gel containing 50 μg/ml was implanted subcutaneously into the TOPGAL mice. 1 week post-implantation, the gel was harvested. LacZ staining was performed. […] Recombinant amelogenin is 6×His tagged. The distribution of amelogenin is shown overlapped with the beta catenin signaling as indicated by the LacZ staining (see e.g., FIG. 18F).

[5] = tested on: Wnt signaling reporter TOPFLASH; experiment: Wnt signaling reporter TOPFLASH luciferase activity in PDL cells; type: cell-based, human; conditions: 48 hours after treatment
Procedure: as §2

[6] = tested on: Wnt signaling reporter (TOPGAL osteoblasts); experiment: LacZ activity in primary osteoblasts from TOPGAL mice; type: cell-based; conditions: 48 hours after treatment
Procedure: as §2

beta catenin signaling = experiment: fibrin gel implanted subcutaneously into TOPGAL mice, LacZ staining; type: in vivo; conditions: fibrin gel containing 50 μg/ml, subcutaneous, 1 week post-implantation
Procedure: as §2

PDL cells [7] = experiment: cell count of PDL cells; type: cell-based, human; conditions: counted at 0, 2 and 4 days
Procedure: PDL cells and dental pulp cells (DPSC) were seeded in 12 well plate with the cells number indicated. The cell treated with amelogenin and cell number were counted at 0, 2, and 4 days (see e.g., FIG. 9A-B).

[8] = tested on: Dental pulp stem cells (DPSCs); experiment: marker gene expression by RT-PCR in dental pulp stem cells in osteogenic medium; type: cell-based, human; conditions: 3 weeks
Procedure: Dental pulp stem cells (DPSCs) were cultured in osteogenic medium for 3 weeks (see e.g., FIG. 13A-B). The osteogenic differentiation was determined by ALP and Van Kossa staining (see e.g., FIG. 13B). The expression of marker genes, RunX2 and DSPP, were determined by RT-PCR (see e.g., FIG. 13C).

[9] = tested on: Mesenchymal stem cell C3H10t1/2 cells; experiment: ALP and Van Kossa staining of C3H10t1/2 cells in osteogenic medium; type: cell-based; conditions: C3H10t1/2, osteogenic medium
Procedure: Mesenchymal stem cell C3H10t1/2 cells were cultured in osteogenic medium for 2 weeks (see e.g., FIG. 14A).
(§3) At 3 weeks, amelogenin-treated cells were positive for both ALP and Van Kossa (see e.g., FIG. 15A-B). […] However, the cells tested negative for DSPP.

[10] = tested on: Mesenchymal stem cell C3H10t1/2 cells; experiment: RT-PCR marker expression in C3H10t1/2 cells in osteogenic medium; type: cell-based; conditions: C3H10t1/2, osteogenic medium
Text: as §3

Human PDL cells [11] = experiment: trichrome staining of collagen matrix in human PDL cells; type: cell-based; conditions: 50 μg/ml ascorbic acid, 2 weeks post-treatment
Procedure: (§4) Human PDL cells were seeded in the 6 well plate and cultured in presence of 50 μg/ml ascorbic acid. The cells were treated with amelogenin. […] The total RNA was extracted and the expression of type I collagen was determined by Real Time PCR (see e.g., FIG. 17B). […] PDL cells were treated with amelogenin in the chemically-defined osteogenic media (see FIG. 17C).

Human PDL cells [12] = experiment: type I collagen expression by Real Time PCR in human PDL cells; type: cell-based; conditions: 2 weeks post-treatment
Procedure: as §4

PDL cells [13] = experiment: Alkaline phosphatase and von Kossa staining of PDL cells in osteogenic media; type: cell-based, human; conditions: chemically-defined osteogenic media
Procedure: as §4

PDL cells [14] = experiment: differentiation markers by Real Time PCR in PDL cells in osteogenic media; type: cell-based, human; conditions: chemically-defined osteogenic media
Procedure: as §4

Human PDL cells [15] = experiment: Von Kossa staining of human PDL cells transfected with ICAT plasmid; type: cell-based; conditions: osteogenic media, 2 weeks
Procedure: Human PDL cells were transfected with the Wnt signaling inhibitor, ICAT plasmid. The cells were treated with amelogenin in the osteogenic media for 2 weeks.

dental pulp cells = experiment: DSP immunostaining of dental pulp cells; type: cell-based, human; conditions: amelogenin group
Text: Immunostaining verified DSP-positive cells in the amelogenin group (see e.g., FIG. 27A-B″).

DSCs = experiment: cell proliferation by cell number count; type: cell-based; conditions: 3000 cells seeded, counted every 2 days
Procedure: 3000 cells were seeded in the 12 well plate and the cell number was counted every 2 days (see e.g., FIG. 28A-B).

[16] = tested on: dental pulp stem cells or periodontal ligament stem cells; experiment: osteogenic and odontogenic differentiation of dental pulp and periodontal ligament stem cells; type: cell-based, human; conditions: culture with amelogenin (e.g., recombinant)
Procedure: Exfoliating deciduous incisors and permanent third molars of multiple donors were collected. Dental pulp (DP) and periodontal ligament (PDL) stem cells were isolated and enzyme-digested per known methods (Yang et al., 2010, Clones of ectopic stem cells in the regeneration of muscle defects in vivo. PloS One. 2010 Oct. 20; 5 (10)). Mononucleated and adherent cells were cultured in DMEM-LG medium containing 10% FBS and 1% antibiotics in 10 cm cell culture dishes. These isolated cells contain single clones of multipotent stem cells that readily express sternness markers such as Stro-1, Oct4, Nanog, and CD146. DSCs and PDL cells were expanded and subjected to osteogenic and odontogenic differentiation. Briefly, DP and PDL stem cells were cultured in DMEM-LG medium containing 10% FBS, 50 μg/ml ascorbic acid and 1 mM 2-glycerophosphate in the presence or absence of recombinant amelogenin. The osteoaenic and odontoaenic differentiation was determined by the expression of RUNX2, dentin sialophosphoprotein (DSPP) and Dentin Matrix Protein 1 (DMP-1) by Real Time PCR, as well as Von Kossa and alkaline phosphatase staining. The level of active […] was measured by immune-fluorescence staining and western blotting.

## O=C1Nc2cc(Br)ccc2/C1=C1/Nc2ccccc2/C1=N\O [BIO, reference compound]
Human PDL cells [1]
  cell differentiation (von Kossa staining): cell differentiation

## amelogenin
Beta catenin [2]; PDL cells treated for 16 hours
  nuclear translocalization of beta catenin: nuclear translocalization
Beta catenin [2]; PDL cells treated with recombinant amelogenin overnight
  translocation of beta catenin: beta catenin translocalized into nucleus
Beta catenin [3]
  translocation of beta catenin: beta catenin translocalized into nucleus
[4]
  non-phosphorylated beta-catenin levels: increased
Active beta catenin
  active beta catenin level: exhibited active beta-catenin levels
[5]
  Wnt activity (TOPFLASH luciferase activity): increased
[6]
  LacZ activity: increased
Beta catenin signaling
  LacZ staining around implanted gel: LacZ positive cells were found in the surrounding area of the gel
PDL cells [7]
  cell counts: temporal increase in cell counts
[8]
  DSPP expression: DSPP-positive
[9]; 2 weeks
  ALP staining: positive
  Van Kossa staining: negative
[9]; 3 weeks
  ALP staining: positive
  Van Kossa staining: positive
[10]; 3 weeks
  DSPP: negative
[10]; RT-PCR
  RunX2 expression: induced
Human PDL cells [11]
  collagen matrix synthesis (trichrome staining): promote the PDL cells matrix synthesis
Human PDL cells [12]
  type I collagen mRNA: upregulate
PDL cells [13]
  cell differentiation (Alkaline phosphatase and von Kossa staining): cell differentiation was confirmed
PDL cells [14]
  differentiation markers (Real Time PCR): upregulation
Human PDL cells [15]
  cell differentiation (Von Kossa staining): demonstrated cell differentiation
Human PDL cells [1]
  cell differentiation (von Kossa staining): cell differentiation
Dental pulp cells
  DSP immunostaining: DSP-positive
DSCs
  cell proliferation (cell number): more rapid proliferation
[16]
  ALP and Van Kossa staining: increased
  DSPP expression: increased

B1: Wnt3A: Wnt3A used at 50 ng/ml on human PDL cells as comparator (protein, UniProt P56704 19-352, looked up)
Protein Wnt-3a: SYPIWWSLAVGPQYSSLGSQPILCASIPGLVPKQLRFCRNYVEIMPSVAEGIKIGIQECQHQFRGRRWNCTTVHDSLAIFGPVLDKATRESAFVHAIASAGVAFAVTRSCAEGTAAICGCSSRHQGSPGKGWKWGGCSEDIEFGGMVSREFADARENRPDARSAMNRHNNEAGRQAIASHMHLKCKCHGLSGSCEVKTCWWSQPDFRAIGDFLKDKYDSASEMVVEKHRESRGWVETLRPRYTYFKVPTERDLVYYEASPNFCEPNPETGSFGTRDRTCNVSSHGIDGCDLLCCGRGHNARAERRREKCRCVFHWCCYVSCQECTRVYDVHTCK
Human PDL cells [1]
  cell differentiation (von Kossa staining): cell differentiation
